Reference: ChEMBL document CHEMBL6182921, “Structural Optimization of Next-Generation TRK Inhibitors against Acquired Drug Resistance Mutations for the Treatment of Solid Tumors” (J Med Chem, 2025)

Tests used:
BaF3 [1] = experiment: cells; details: Mus musculus, BaF3, 72 h
Description: Antiproliferative activity against mouse BaF3 cells harbouring MPRIP-TRKA G667C mutant assessed as inhibition of cell growth measured after 72 hrs by CCK-8 method

BaF3 [2] = experiment: Antiproliferative activity against mouse BaF3 cells harbouring MPRIP-TRKA G595R mutant assessed as inhibition of cell growth at 1000 nmol/L measured after 72 hrs by CCK-8 method relative to control; type: functional
[3] = target: High affinity nerve growth factor receptor (Homo sapiens, UniProt P04629)
Description: Inhibition of TRKA (unknown origin) incubated for 1 hr in presence of ATP by ELISA method

BaF3 [4] = experiment: Antiproliferative activity against mouse BaF3 cells harbouring MPRIP-TRKA G595R mutant assessed as inhibition of cell growth measured after 72 hrs by CCK-8 method; type: functional, cell-based; details: BaF3, 72 h
BaF3 [5] = type: functional, cell-based; details: Mus musculus
BaF3 [6] = experiment: cells; details: Mus musculus, BaF3, 72 h; remark: listed apart in the source
Description: Antiproliferative activity against mouse BaF3 cells harbouring xDFG (TRKA-G667C) mutation measured after 72 hrs by Cell-titer glo assay

Chain of High affinity nerve growth factor receptor (P04629 whole entry): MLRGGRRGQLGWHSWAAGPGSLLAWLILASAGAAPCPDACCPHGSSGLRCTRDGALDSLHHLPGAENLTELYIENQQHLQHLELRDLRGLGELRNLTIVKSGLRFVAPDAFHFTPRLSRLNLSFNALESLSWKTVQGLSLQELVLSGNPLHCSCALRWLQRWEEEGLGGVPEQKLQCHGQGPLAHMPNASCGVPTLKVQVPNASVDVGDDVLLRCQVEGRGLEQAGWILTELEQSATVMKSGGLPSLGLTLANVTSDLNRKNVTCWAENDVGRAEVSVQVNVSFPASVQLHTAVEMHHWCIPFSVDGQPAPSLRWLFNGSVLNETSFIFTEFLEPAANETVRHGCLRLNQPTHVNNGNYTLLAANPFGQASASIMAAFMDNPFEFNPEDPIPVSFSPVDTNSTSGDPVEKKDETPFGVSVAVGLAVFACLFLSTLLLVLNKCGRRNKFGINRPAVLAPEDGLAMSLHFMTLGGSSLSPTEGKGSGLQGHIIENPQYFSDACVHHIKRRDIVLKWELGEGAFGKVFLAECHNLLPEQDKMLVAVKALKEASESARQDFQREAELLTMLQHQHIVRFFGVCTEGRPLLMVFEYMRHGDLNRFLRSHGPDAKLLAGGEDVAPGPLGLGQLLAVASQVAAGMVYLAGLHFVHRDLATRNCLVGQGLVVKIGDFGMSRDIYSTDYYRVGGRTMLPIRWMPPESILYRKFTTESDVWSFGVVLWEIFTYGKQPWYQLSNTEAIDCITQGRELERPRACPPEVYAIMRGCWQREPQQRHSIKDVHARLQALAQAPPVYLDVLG

SMILES | IC50 (BaF3 [1]) | IC50 (BaF3 [4]) | IC50 (BaF3 [6]) | further results
CCCN(CCC)Cc1ccc(NC(=O)c2cc(N3CCC[C@@H]3c3cc(F)ccc3F)c[nH]c2=O)cc1 | 184 nM | – | – | inhibition at 1 µM (BaF3 [2]): 45.2%
CC1CN(Cc2ccc(NC(=O)c3cc(N4CCC[C@@H]4c4cc(F)ccc4F)c[nH]c3=O)cc2)CCN1S(=O)(=O)N1CCOCC1 (stereo not given in full) | 112 nM | > 1000 nM | – | IC50 [3]: 1.6 nM
C[C@@H](N)COc1ccc(-c2cnc3ccc(N[C@H](C)c4cccc(F)c4)nn23)cc1 [TALETRECTINIB] | – | – | – | IC50 (BaF3 [5]): 304 nM
C[C@H]1CNC(=O)c2cnn3ccc(nc23)N[C@H](C)c2cc(F)ccc2O1 [REPOTRECTINIB] | – | – | 15 nM | –
C[C@@H]1CCc2ncc(F)cc2[C@H]2CCCN2c2ccn3ncc(c3n2)C(=O)N1 [SELITRECTINIB] | 171 nM | 37.9 nM | 124 nM | –
